This is an account of results in patent US5565455A, “Method for treating substance abuse disorders” (priority 1992, dated 1996).

One series addresses T1, 5-HT1A (Homo sapiens, UniProt P08908).
T1 sequence (P08908 1-422): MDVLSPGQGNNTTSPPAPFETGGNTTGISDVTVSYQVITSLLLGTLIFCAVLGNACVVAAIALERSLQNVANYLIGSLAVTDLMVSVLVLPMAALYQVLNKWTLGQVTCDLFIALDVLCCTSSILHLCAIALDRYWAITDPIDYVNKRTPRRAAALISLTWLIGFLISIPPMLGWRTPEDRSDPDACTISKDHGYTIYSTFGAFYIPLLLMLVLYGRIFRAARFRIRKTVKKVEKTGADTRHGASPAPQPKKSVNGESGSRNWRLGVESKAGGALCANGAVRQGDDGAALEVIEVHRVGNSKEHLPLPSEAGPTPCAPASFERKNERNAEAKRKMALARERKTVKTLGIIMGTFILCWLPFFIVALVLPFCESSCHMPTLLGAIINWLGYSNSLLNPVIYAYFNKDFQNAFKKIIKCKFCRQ
The experiment in a line: biochemical. Type of series: binding.

The test system of series [1] is 5-HT reuptake, synaptosomes from rat frontal cortex. Kind of series: Inhibition of reuptake of [3H-5-HT] by synaptosomes from rat frontal cortex. Format: biochemical. The following applies: method of Shank et al.
Series [2] has as its system voluntary ethanol consumption in rats. The following applies: cited from earlier work.
The target in a further series is 5-HT2 (Homo sapiens, UniProt P28223). Kind of series: Drug affinity for 5-HT2 receptor, radioligand 3H-ketanserin, cerebral cortex.
Chain of 5-HT2 (P28223 whole entry, species assumed): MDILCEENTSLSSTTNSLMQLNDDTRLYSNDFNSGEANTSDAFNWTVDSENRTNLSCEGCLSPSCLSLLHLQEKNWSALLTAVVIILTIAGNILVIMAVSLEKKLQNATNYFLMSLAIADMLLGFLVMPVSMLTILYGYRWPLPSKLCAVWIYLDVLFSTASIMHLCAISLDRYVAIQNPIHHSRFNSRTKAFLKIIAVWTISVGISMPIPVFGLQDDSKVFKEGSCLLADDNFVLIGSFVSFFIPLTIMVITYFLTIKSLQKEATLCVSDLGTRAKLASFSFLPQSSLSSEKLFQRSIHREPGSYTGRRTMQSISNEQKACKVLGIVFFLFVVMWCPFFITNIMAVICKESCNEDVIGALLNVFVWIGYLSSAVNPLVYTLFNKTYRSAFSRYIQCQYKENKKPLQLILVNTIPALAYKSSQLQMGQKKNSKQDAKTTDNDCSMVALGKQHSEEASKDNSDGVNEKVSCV
In series [3] the test system is alcohol-dependent individuals. As to conditions: cited from earlier work.
Series [4] deals with consumption of alcohol by monkeys. The following applies: cited from earlier work.
Series [5] has as its system Sprague-Dawley rats induced to drink alcohol chronically. The experiment in a line: Alcohol drinking in Sprague-Dawley rats induced by cyanamide injections. Type of series: in vivo, rat. On the procedure:
To further illustrate the useful pharmacological properties of FG5893, the effect of FG5893 administered systemically was determined in Sprague-Dawley rats induced to drink alcohol chronically by a series of intraperitoneal injections of cyan-amide according to experimental procedures described previously (Critcher, E. C. and R. D. Myers, Alcohol 4:347-353, 1987). Intakes of food and body weights were recorded.
FG5893 in a dose of 0.5, 1.0 and 2.5 mg/kg was administered twice a day for three consecutive days. […] This finding is notable because drugs that attenuate the preference for alcohol consumed in a concentration of pharmacological consequence typically impair the ingestion of food.

[6] abbreviates: clinical trial versus placebo in alcohol-dependent individuals.
Where [7] appears, read: 0.5, 1.0 and 2.5 mg/kg twice a day for three consecutive days, all doses.

Counter-ions that a name gives are not always drawn. Like-named read-outs stand apart in the source and are kept apart here.

On to `CCNC(=O)N1CCN(CCCC(c2ccc(F)cc2)c2ccc(F)cc2)CC1` [Amperozide], for which the figures for the Ki on 5-HT1A and on 5-HT2 were 805 nM and 17 nM, respectively. Inhibition in series [1] was half-maximal at 320 nM (IC50). Also, the “consumption of food and level of body weight” value in series [2] (rat, in vivo) is reported as “without affecting”. The “intake of alcohol in rats” value in series [2] (rats) is reported as “significantly attenuate”.

On to `O=C1CC2(CCCC2)CC(=O)N1CCCCN1CCN(c2ncccn2)CC1` [Buspirone], for which, in series [3] (setting [6]), the drop-out rate entry is “lower drop-out rate” and the signs of craving entry is listed as “fewer signs of craving”. In addition, the “consumption of alcohol by monkeys” value in series [4] was “attenuate significantly”.

In the case of `COC(=O)c1cccnc1N1CCN(CCCC(c2ccc(F)cc2)c2ccc(F)cc2)CC1` [FG5893, 2-[4-[4,4-bis(4-fluorophenyl)butyl]-1-piperazinyl]-3-pyridinecarboxylic acid methyl ester dihydrochloride ethylat], the inhibition constant Ki (as a rule, a dissociation constant, usually derived from enzyme kinetics or from competition with a known ligand) at 5-HT1A (Radioligand 3H-8-OH-DPAT, tissue hippocampus) was 0.7 nM. In series [1], the IC50 (in general, the midpoint of a concentration-inhibition curve) was determined as 80 nM. In series [5] (setting [7]), the “intake of alcohol, absolute g/kg” value is reported as “significantly reduced” and the “proportion of alcohol to total fluid intake” value is given as “significantly reduced”. Besides, in series [5] (1.0 and 2.5 mg/kg doses, two 4-day tests immediately following the injection sequence and after a 40-day interval), the “alcohol consumption after the injection sequence” value is “continued to suppress alcohol consumption”. In addition, in series [5] (during or after administration), the body weights result is “Neither body weights nor intakes of food of the rats were affected” and the intakes of food entry is recorded as “Neither body weights nor intakes of food of the rats were affected”. For the same compound, on 5-HT2, the Ki is 4 nM.

`CN(C)C/C=C(/c1ccc(Br)cc1)c1cccnc1` [Zimelidine]: the IC50 in series [1] was found to be 120 nM. Further, in series [3] (human trials), the “number of abstinent days” value is “increase” and the “number of daily drinks” value is “slight reduction”. Further, in series [2] (concomitantly), the “ingestion of food and alcohol” value is on record as “attenuate”. Besides, in series [2] (rats), the “voluntary ethanol consumption in rats” value was “potent inhibitory effect”.
